In patent publication US20260317367A1, “SALTS INCLUDING CRYSTALLINE SALTS OF 25-HYDROXY-CHOLEST-5-EN-3-SULFATE AND METHODS FOR PREPARING SAME” (Durect Corporation, priority 2022, published 2026):
Where a name gives a salt, the structure may show the parent alone.

Legend:
Type in all cases: physicochemical
[1] = Solubility of 25HC3S salts after one day at room temperature (HPLC, as free acid); conditions: one day
Experimental: These fluids were prepared per the instruction listed by Biorelevant (Biorelevant.com). Each buffer concentrate was diluted with water and mixed well. FaSSIF, FeSSIF, FaSSGF powder was added to each buffer and mixed to completely dissolve the powder. Buffers were stored at room temperature and used within 48 hours of preparation.
25HC3S salts were weighed in 8 mL or 4 mL glass vials with Teflon coated screw caps. Aliquots of each solvent were added to each sample and vortexed for about one minute until excess solid remained. Samples were placed on shaker at room temperature with 210 motion per minute shaking.
After one day, samples were pulled and checked if excess solid was present. About 1.5 mL aliquot of each sample was centrifuged at 12000 rpm for 12 to 15 minutes. […] Aliquots of the top clear solution of each centrifuged sample in MeOH, EtOH, IPA and ACN were diluted with diluent (water:MeOH 95:5) and assayed by HPLC. Samples of the salts in aqueous media were assayed by HPLC without dilution.
All solubility sample solutions of 25HC3S salts were determined using HPLC. A linear standard curve was constructed using standards with concentration between 11 μg/mL to 1.5 mg/mL as free acid forcing the curve to origin. Solubilities are reported as mg/mL free acid 25HC3S. Detection limit (LOD) of the HPLC method was calculated as 0.0007 mg/mL.

[2] = Hausner ratio and compressibility index of 25HC3S salts; conditions: for Compressibility Index: Table C3 heads this index in %
Experimental: Although there are some variations in the method of determining the compressibility index and Hausner ratio, the basic procedure is to measure the unsettled apparent volume, VO, and the final tapped volume, Vf, of the powder after tapping the material until no further volume changes occur. The compressibility index and the Hausner ratio are calculated as follows: […]
Both the Hausner ratio and the compressibility index are empirically established. The Hausner ratio and compressibility index are not absolute properties of a material; its value can vary depending on the methodology used to determine them. In this case, since the 14 salts of 25HC3S were measured the same way, the relative values should be accurate.
Table C3, from USP <1174> Powder Flow, describes the flow character of the powder based on the compressibility index and Hausner ratio values.
Powder was carefully poured into a 5 mL glass graduated cylinder (to contain) until it was close to or at 5.0 mL. This initial volume was recorded as Vo. The graduated cylinder was tapped on a hard surface for 200 times and the volume was recorded. The cylinder was tapped 100 times more, and the final volume Vf was recorded. Typically, the volume after 200 taps was identical to after 300 taps, or within 0.1 mL.

[3] = X-ray powder diffraction before and after DVS (form stability); conditions: 5% to 95% RH
Experimental: XRPD patterns were collected with a PANalytical X'Pert PRO MPD or a PANalytical Empyrean diffractometer using an incident beam of Cu radiation produced using an Optix long, fine-focus source. An elliptically graded multilayer mirror was used to focus Cu Kα X-rays through the specimen and onto the detector. Prior to the analysis, a silicon specimen (NIST SRM 640f) was analyzed to verify the observed position of the Si 111 peak is consistent with the NIST-certified position. A specimen of the sample was sandwiched between 3-μm-thick films and analyzed in transmission geometry. A beam-stop, short antiscatter extension, and antiscatter knife edge were used to minimize the background generated by air. Soller slits for the incident and diffracted beams were used to minimize broadening and asymmetry from axial divergence. Diffraction patterns were collected using a scanning position-sensitive detector (X'Celerator) located 240 mm from the specimen and Data Collector software v. 5.5. All images have the instrument labeled as X'Pert PRO MPD regardless of the instrument used.
XRPD patterns were collected with a PANalytical X'Pert PRO MPD diffractometer using an incident beam of Cu Kα radiation produced using a long, fine-focus source and a nickel filter. The diffractometer was configured using the symmetric Bragg-Brentano geometry. Prior to the analysis, a silicon specimen (NIST SRM 640f) was analyzed to verify the observed position of the Si 111 peak is consistent with the NIST-certified position. A specimen of the sample was prepared as a thin, circular layer centered on a silicon zero-background substrate. Antiscatter slits (SS) were used to minimize the background generated by air. Soller slits for the incident and diffracted beams were used to minimize broadening from axial divergence. Diffraction patterns were collected using a scanning position-sensitive detector (X'Celerator) located 240 mm from the sample and Data Collector software v. 5.5
(§1) Dynamic vapor sorption data was collected on a Surface Measurement System DVS Intrinsic instrument. The samples were not dried prior to analysis. Sorption and desorption data were collected over a range from 5% to 95% RH in 10% RH increments under a nitrogen purge. The equilibrium criteria used for the analyses were 0.001 dm/dt weight change in 5 minutes with a minimum step time of 30 minutes and maximum equilibration time of 180 minutes with a 3 minute data logging interval. Data were not corrected for the initial moisture content of the sample.

[4] = Dynamic vapor sorption (DVS), hygroscopicity; conditions: DVS; for Water uptake (weight gain) up to about 95% relative humidity: 5% to about 95% RH
From the text: Dynamic vapor sorption (DVS) measures the uptake of a vapor (typically water) by a sample when exposed to a changing relative humidity. The loss of water can also be measured as relative humidity is decreased. Hygroscopic materials tend to absorb water more readily than non-hygroscopic. In some cases, hydrates absorb water to create higher-order hydrates (e.g., a monohydrate converting to a dihydrate when exposed to increasingly humid conditions). In some salts of the disclosure, moisture is retained upon exposure in a DVS experiment and little or no weight loss is observed upon heating from room temperature. In such experiments, the hygroscopic nature of the salt under study may indicate the formation of a hydrate from an anhydrate. […] Exemplary methods for collecting DVS data are set forth in Example 26.
as §1

[5] = room temperature, as free acid, LOD 0.0007 mg/mL, 1440 min
[6] = Fasted State Simulated Gastric Fluid, pH 1.6, room temperature, as free acid, LOD 0.0007 mg/mL, 1440 min
[7] = listed as crystalline 25HC3S potassium
[8] = listed as 25HC3S tromethammonium
[9] = listed as crystalline 25HC3S tromethammonium
[10] = room temperature, listed as crystalline 25HC3S hydroxyethylpyrrolidinium
[11] = listed as 25HC3S hydroxyethylpyrrolidinium

For `CC(CCCC(C)(C)O)C1CCC2C3CC=C4CC(OS(=O)(=O)O)CCC4(C)C3CCC12C` (centres unmarked) [Salt #2], the “Solubility in 5% Dextrose” value [1, 5] was 0.005 mg/mL, the “Solubility in FaSSGF (in words)” value ([1]; FaSSGF, room temperature, listed as crystalline 25HC3S calcium) was “low solubility” and the “Solubility in FaSSIF (in words)” value ([1]; FaSSIF, room temperature, listed as crystalline 25HC3S calcium) was “relatively high solubility”. For the same compound, the “Solubility in saline / 0.9% sodium chloride (in words)” value ([1]; room temperature, listed as crystalline 25HC3S calcium) was “low solubility”, the “Compressibility Index” value ([2]; listed as 25HC3S calcium) was 36 and the “Hausner Ratio” value ([2]; listed as 25HC3S calcium) was 1.56. The “Change of x-ray powder diffraction pattern after DVS (in words)” value ([3]; listed as crystalline 25HC3S calcium) was “not an appreciable change”.

In the case of `CC(CCCC(C)(C)O)C1CCC2C3CC=C4CC(OS(=O)(=O)O)CCC4(C)C3CCC12C` (centres unmarked) [Salt #1], the “Solubility in FaSSGF (in words)” value ([1]; FaSSGF, room temperature, listed as crystalline 25HC3S potassium) is reported as “low solubility”, the “Solubility in FaSSGF” value [1, 6] is reported as 0.002 mg/mL and the “Solubility in saline / 0.9% sodium chloride (in words)” value ([1]; room temperature, listed as crystalline 25HC3S potassium) is reported as “low solubility”. For the same compound, the “Compressibility Index” value ([2]; listed as 25HC3S potassium) was 26, the “Hausner Ratio” value ([2]; listed as 25HC3S potassium) was 1.35 and the “Water uptake (weight gain) up to about 95% relative humidity” value [4, 7] was 2%. The “Hygroscopicity (in words)” value [4, 7] was “limited hygroscopicity” and the “Change of x-ray powder diffraction pattern after DVS (in words)” value [3, 7] was “not an appreciable change”.

With `CC(CCCC(C)(C)O)C1CCC2C3CC=C4CC(OS(=O)(=O)O)CCC4(C)C3CCC12C` (centres unmarked) [Salt #8] the “Solubility in FaSSGF (in words)” value ([1]; FaSSGF, room temperature) was “high solubility”, the “Solubility in FaSSIF (in words)” value ([1]; FaSSIF, room temperature) was “high solubility” and the “Solubility in FeSSIF (in words)” value ([1]; room temperature) was “high solubility”. The “Solubility in saline / 0.9% sodium chloride (in words)” value ([1]; room temperature, listed as crystalline 25HC3S tromethammonium) was “low solubility”, the “Compressibility Index” value [2, 8] was 28 and the “Hausner Ratio” value [2, 8] was 1.39. For the same compound, the “Water uptake (weight gain) up to about 95% relative humidity” value [4, 9] was “over 20%”, the “Hygroscopicity (in words)” value [4, 9] was “hygroscopic” and the “Change of x-ray powder diffraction pattern after DVS (in words)” value [3, 9] was “some potential differences”.

With `CC(CCCC(C)(C)O)C1CCC2C3CC=C4CC(OS(=O)(=O)O)CCC4(C)C3CCC12C` (centres unmarked) [Salt #6] the “Solubility in 0.9% NaCl” value ([1]; 0.9% NaCl, room temperature, as free acid, ND = not detected, detection limit 0.7 μg/mL, 1440 min, listed as 25HC3S hydroxyethylpyrrolidinium) was 3 µg/mL, the “Solubility in 5% Dextrose” value [1, 5] was 0.642 mg/mL and the “Solubility in 5% Dextrose” value ([1]; room temperature, as free acid, ND = not detected, detection limit 0.7 μg/mL, 1440 min, listed as 25HC3S hydroxyethylpyrrolidinium) was 0.642 mg/mL. The “Solubility in acetonitrile (in words)” value ([1]; ACN, room temperature) was “relatively high solubility”, the “Solubility in FaSSGF (in words)” value ([1]; FaSSGF, room temperature) was “high solubility” and the “Solubility in FaSSGF” value ([1]; FaSSGF, room temperature, as free acid, ND = not detected, detection limit 0.7 μg/mL, 1440 min, listed as 25HC3S hydroxyethylpyrrolidinium) was 0.010 mg/mL. For the same compound, the “Solubility in FaSSIF (in words)” value ([1]; FaSSIF, room temperature) was “high solubility”, the “Solubility in FaSSIF” value ([1]; FaSSIF, room temperature, as free acid, 1440 min, listed as 25HC3S hydroxyethylpyrrolidinium) was 0.161 mg/mL and the “Solubility in FaSSIF (in words)” value ([1]; FaSSIF, room temperature, listed as crystalline 25HC3S hydroxyethylpyrrolidinium) was “relatively high solubility”. The “Solubility in FaSSIF” value ([1]; Fasted State Simulated Intestinal Fluid, room temperature, as free acid, 1440 min) was 0.161 mg/mL, the “Solubility in FeSSIF (in words)” value ([1]; room temperature) was “high solubility” and the “Solubility in FeSSIF (in words)” value [1, 10] was “relatively high solubility”. For the same compound, the “Solubility in methanol (in words)” value ([1]; MeOH, room temperature) was “did not reach saturation”, the “Solubility in ACN” value ([1]; acetonitrile, room temperature, as free acid, 1440 min, listed as 25HC3S hydroxyethylpyrrolidinium) was 1.2 mg/mL and the “Solubility in 5% dextrose (in words)” value ([1]; room temperature) was “highest solubility”. The “Solubility in 5% dextrose (in words)” value [1, 10] was “relatively high solubility”, the “Solubility in IPA” value ([1]; isopropyl alcohol, room temperature, as free acid, 1440 min, listed as 25HC3S hydroxyethylpyrrolidinium) was 6.7 mg/mL and the “Solubility in saline / 0.9% sodium chloride (in words)” value ([1]; room temperature) was “highest solubility”. The “Solubility in water (in words)” value ([1]; water, room temperature) was “highest solubility”, the “Solubility in H2O” value ([1]; water, room temperature, as free acid, ND = not detected, detection limit 0.7 μg/mL, 1440 min, listed as 25HC3S hydroxyethylpyrrolidinium) was 0.273 mg/mL and the “Compressibility Index” value [2, 11] was 35. The “Hausner Ratio” value [2, 11] was 1.53 and the “Change of x-ray powder diffraction pattern after DVS (in words)” value ([3]; listed as crystalline 25HC3S hydroxyethylpyrrolidinium) was “different than before”.

With `CC(CCCC(C)(C)O)C1CCC2C3CC=C4CC(OS(=O)(=O)O)CCC4(C)C3CCC12C` (centres unmarked) [Salt #7] the “Solubility in FaSSGF (in words)” value ([1]; FaSSGF, room temperature) was “high solubility”, the “Solubility in FaSSGF (in words)” value ([1]; FaSSGF, room temperature, listed as crystalline 25HC3S meglumine) was “relatively high solubility” and the “Solubility in FaSSIF (in words)” value ([1]; FaSSIF, room temperature) was “high solubility”. For the same compound, the “Solubility in FaSSGF” value [1, 6] was 0.048 mg/mL, the “Solubility in FeSSIF (in words)” value ([1]; room temperature) was “high solubility” and the “Solubility in saline / 0.9% sodium chloride (in words)” value ([1]; room temperature, listed as crystalline 25HC3S meglumine) was “low solubility”. For the same compound, the “Compressibility Index” value ([2]; listed as 25HC3S meglumine) was 36, the “Hausner Ratio” value ([2]; listed as 25HC3S meglumine) was 1.56 and the “Water uptake, plateau above 35% RH” value ([4]; stable plateau above 35% relative humidity) was “about 3%”.
